Experimental data: patent US5169856A, “Piperidinoalkyl derivatives of carboxylic acid amides” (priority 1988, dated 1992)
Counter-ions that a name gives are not always drawn.

Biological target: T1, acetylcholinesterase (Rattus norvegicus, UniProt P37136)
T1 construct: S1 fraction of the cerebral cortex of male Wistar rats, the enzyme source; from tissue; host or cells: S1 fraction of the cerebral cortex of male Wistar rats
Assay: Inhibition of cholinesterase activity, radiometric ([acetyl-3H]-acetylcholine), S1 fraction of rat cerebral cortex
Assay type: biochemical, male Wistar rats
Conditions: 15 min preincubation at room temperature, [acetyl-3H]-acetylcholine final 200 μM, 30 min, read-out: Anti-acetylcholinesterase activity IC50
Procedure: Cholinesterase activity was measured radiometrically by the method of Johnson and Russell^1), modified by Kleinberger and Yanal^2), with a slight modification.
S1 fraction of the cerebral cortex of male Wistar rats, the enzyme source, was preincubated in a scintillation vial with drugs for 15 min at room temperature, and then [acetyl-^3 H]-acetylchollne (final 200 μM) was added and incubated further for 30 min. The reaction was terminated by adding solution containing 1 M chloroacetic acid, followed by toluene-based scintillant, and the vials were capped and shaken to transfer the product, [^3 H]-acetic acid, to toluene phase. Then radioactivity in the toluene phase was counted by liquid scintillation spectrometry. Inhibitory activity of the test drug was expressed by 50%-inhibitory concentration (IC50), which was calculated by linear regression of log-probit transformation of the inhibition curve.

T1 sequence (P37136 32-614): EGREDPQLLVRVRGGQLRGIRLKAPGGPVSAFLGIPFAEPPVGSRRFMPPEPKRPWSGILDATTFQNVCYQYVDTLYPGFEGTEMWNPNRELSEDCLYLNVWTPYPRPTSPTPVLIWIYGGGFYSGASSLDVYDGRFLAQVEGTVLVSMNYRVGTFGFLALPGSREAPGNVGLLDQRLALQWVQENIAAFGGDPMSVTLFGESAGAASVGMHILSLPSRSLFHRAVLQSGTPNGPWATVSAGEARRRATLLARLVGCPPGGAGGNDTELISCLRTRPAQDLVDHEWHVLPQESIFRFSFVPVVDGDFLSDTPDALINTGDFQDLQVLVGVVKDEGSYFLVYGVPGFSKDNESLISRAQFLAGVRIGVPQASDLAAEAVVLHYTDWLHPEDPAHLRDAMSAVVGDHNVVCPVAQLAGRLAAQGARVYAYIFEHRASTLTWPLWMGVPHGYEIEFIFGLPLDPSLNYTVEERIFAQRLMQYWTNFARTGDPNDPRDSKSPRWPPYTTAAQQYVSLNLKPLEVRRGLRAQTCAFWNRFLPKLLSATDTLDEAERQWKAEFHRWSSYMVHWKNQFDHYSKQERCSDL

## O=C(C=Cc1ccco1)NCCC1CCN(Cc2ccccc2)CC1 [Example 4-4]
  IC50: 9.9 µM

## CC(=O)N(CCC1CCN(Cc2ccccc2)CC1)C(=O)/C=C/c1ccccc1 [Example 3, (E)-3-Phenyl-N-acetyl-N-[2-(1-benzylpiperidin-4yl)ethyl]-2-propenamide.hydrochloride]
  IC50: 0.64 µM

## O=C(/C=C/c1ccccc1)NCCC1CCN(Cc2ccccc2)CC1 [Example 1, (E)-3-Phenyl-N-[2-(1-benzylpiperidin-4-yl)ethyl]-2propenamide.hydrochloride]
  IC50: 9.6 µM

## CC(=Cc1ccccc1)C(=O)NCCC1CCN(Cc2ccccc2)CC1 [Example 4-1]
  IC50: 8.1 µM

## O=C(C=Cc1cccnc1)NCCC1CCN(Cc2ccccc2)CC1 [Example 4-3]
  IC50: 2 µM

## COc1ccc(C=CC(=O)NCCC2CCN(Cc3ccccc3)CC2)cc1OC [Example 4-6]
  IC50: 2.6 µM

## COc1cc2c(cc1OC)CCC(C(=O)NCCC1CCN(Cc3ccccc3)CC1)=C2 [Example 4-7]
  IC50: 1.2 µM

## Cc1ccc(C=CC(=O)NCCC2CCN(Cc3ccccc3)CC2)cc1 [Example 4-11]
  IC50: 15 µM

## CS(=O)(=O)c1ccc(C=CC(=O)NCCC2CCN(Cc3ccccc3)CC2)cc1 [Example 4-10]
  IC50: 1.6 µM

## O=C(C=Cc1ccc([N+](=O)[O-])cc1)NCCC1CCN(Cc2ccccc2)CC1 [Example 4-8]
  IC50: 2.8 µM

## O=C(C=Cc1cccs1)NCCC1CCN(Cc2ccccc2)CC1 [Example 4-5]
  IC50: 13 µM

## N#Cc1ccc(C=CC(=O)NCCC2CCN(Cc3ccccc3)CC2)cc1 [Example 4-9]
  IC50: 3.3 µM

## O=C(C=Cc1ccc(Cl)cc1)NCCC1CCN(Cc2ccccc2)CC1 [Example 4-12]
  IC50: 9.2 µM

## CN(CCC1CCN(Cc2ccccc2)CC1)C(=O)/C=C/c1ccccc1 [Example 2, (E)-3-Phenyl-N-methyl-N-[2-(1-benzylpiperidin-4-yl)ethyl]-2-propenamide.hydrochloride]
  IC50: 18 µM

## O=C(NCCC1CCN(Cc2ccccc2)CC1)C(=Cc1ccccc1)c1ccccc1 [Example 4-2]
  IC50: 3.5 µM
